inhibition, IC50 and Ki data for 20 compounds are collected here from ChEMBL document CHEMBL1177655, “Synthesis and inhibitory activities of novel C-3 substituted azafagomines: a new type of selective inhibitors of α-L-fucosidases” (Bioorg Med Chem, 2010).

The source made the active and inactive calls. The calls are words filed in the database; no cut-off is given here.

Test [1] addresses Beta-galactosidase (Escherichia coli K-12) (UniProt P00722). Put plainly: Inhibition of Escherichia coli beta galactosidase at 1 mM.
Test [2] has as its target T1, Tissue alpha-L-fucosidase (Bos taurus) (UniProt Q2KIM0).
T1 sequence (whole entry): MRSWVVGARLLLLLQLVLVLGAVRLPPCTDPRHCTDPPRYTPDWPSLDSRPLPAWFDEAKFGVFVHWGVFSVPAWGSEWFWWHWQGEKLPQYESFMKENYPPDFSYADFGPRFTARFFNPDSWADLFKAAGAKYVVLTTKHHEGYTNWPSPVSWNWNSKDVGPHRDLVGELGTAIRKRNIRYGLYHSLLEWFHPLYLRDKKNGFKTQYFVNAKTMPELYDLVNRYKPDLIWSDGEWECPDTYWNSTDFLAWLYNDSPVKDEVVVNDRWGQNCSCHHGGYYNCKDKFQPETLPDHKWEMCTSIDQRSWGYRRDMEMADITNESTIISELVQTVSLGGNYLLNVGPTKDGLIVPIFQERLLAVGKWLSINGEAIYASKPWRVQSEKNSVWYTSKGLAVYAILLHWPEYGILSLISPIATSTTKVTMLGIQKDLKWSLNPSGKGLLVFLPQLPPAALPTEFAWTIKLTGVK
Put plainly: Inhibition of bovine kidney alpha L-fucosidase at 1 mM.

Test [3] relates to Saccharomyces cerevisiae. Put plainly: Inhibition of yeast maltase at 1 mM.
Test [4] relates to Prunus dulcis. Put plainly: Inhibition of almond beta glucosidase at 1 mM.
The test system of test [5] is Aspergillus niger. Put plainly: Inhibition of Aspergillus niger amyloglucosidase at 1 mM.
Test [6] addresses T2, Tissue alpha-L-fucosidase (Bos taurus, UniProt Q2KIM0).
T2 sequence (Q2KIM0 whole entry): T1 sequence (whole entry)
Nature of the test: Inhibition of bovine kidney alpha L-fucosidase.

Test [7] has as its target T1, Tissue alpha-L-fucosidase (Bos taurus). Nature of the test: Inhibition of bovine kidney alpha L-fucosidase at 0.1 mM.
Test [8] addresses Beta-galactosidase (Escherichia coli K-12) (UniProt P00722). Put plainly: Inhibition of Escherichia coli beta galactosidase at 0.1 mM.
In test [9] the test system is Saccharomyces cerevisiae. Put plainly: Inhibition of yeast maltase at 0.1 mM.
The test system of test [10] is Prunus dulcis. Put plainly: Inhibition of almond beta glucosidase at 0.1 mM.
Test [11] deals with Aspergillus niger. Nature of the test: Inhibition of Aspergillus niger amyloglucosidase at 0.1 mM.

Sequence of Beta-galactosidase (Escherichia coli K-12) (P00722 whole entry): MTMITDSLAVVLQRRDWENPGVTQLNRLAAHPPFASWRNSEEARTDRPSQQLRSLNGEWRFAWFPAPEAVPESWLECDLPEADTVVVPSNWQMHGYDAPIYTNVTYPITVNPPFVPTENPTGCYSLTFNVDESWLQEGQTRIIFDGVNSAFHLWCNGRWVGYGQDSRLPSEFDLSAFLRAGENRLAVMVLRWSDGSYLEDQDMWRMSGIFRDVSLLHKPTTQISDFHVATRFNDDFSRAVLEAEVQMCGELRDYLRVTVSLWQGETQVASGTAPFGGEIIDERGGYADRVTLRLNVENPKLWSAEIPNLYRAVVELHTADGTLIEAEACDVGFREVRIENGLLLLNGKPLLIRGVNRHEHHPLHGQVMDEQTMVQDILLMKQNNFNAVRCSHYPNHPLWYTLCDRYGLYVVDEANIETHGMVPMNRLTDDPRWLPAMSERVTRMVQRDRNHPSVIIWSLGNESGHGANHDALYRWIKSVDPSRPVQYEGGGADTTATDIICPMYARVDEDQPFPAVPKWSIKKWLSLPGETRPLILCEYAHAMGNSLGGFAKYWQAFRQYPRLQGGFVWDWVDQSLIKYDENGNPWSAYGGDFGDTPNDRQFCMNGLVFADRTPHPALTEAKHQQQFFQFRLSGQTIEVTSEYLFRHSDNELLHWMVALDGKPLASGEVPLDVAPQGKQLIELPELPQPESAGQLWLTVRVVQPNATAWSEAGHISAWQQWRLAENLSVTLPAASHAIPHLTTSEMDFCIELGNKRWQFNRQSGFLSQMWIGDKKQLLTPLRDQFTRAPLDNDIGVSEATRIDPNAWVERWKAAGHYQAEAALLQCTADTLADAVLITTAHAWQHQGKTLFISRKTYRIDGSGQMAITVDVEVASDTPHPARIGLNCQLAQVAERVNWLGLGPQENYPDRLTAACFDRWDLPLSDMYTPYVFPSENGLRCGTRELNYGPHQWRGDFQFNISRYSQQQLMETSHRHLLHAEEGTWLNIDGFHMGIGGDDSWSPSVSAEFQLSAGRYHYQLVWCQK

For the compound `CCCCCCCCCCCC(=O)NC[C@@H]1NN[C@@H](C)[C@@H](O)[C@H]1O`, the inhibition result in test [1], in test [4] and in test [5] was “inactive” each time. For the same compound, the inhibition in [2] is 70%; in test [3] it was 51%.

Take `C[C@@H]1NN[C@@H](CNC(=O)[C@@H](N)Cc2ccccc2)[C@H](O)[C@@H]1O`: the inhibition result in test [1], in test [3], in test [4] and in test [5] was “inactive” in each case. The inhibition in test [2] is 82%. Also, the IC50 in [6] amounted to 283 µM.

As to `C[C@@H]1[C@@H](O)[C@@H](O)[C@H](CNC(=O)[C@@H](N)Cc2ccccc2)NN1C(=O)OCc1ccccc1`, the inhibition result in [1], in test [3], in [4] and in test [5] was “inactive” each time. The same compound came in with an inhibition in [2] of 16%.

Regarding `CCCCCCCCCCCC(=O)NC[C@@H]1NN(C(=O)OCc2ccccc2)[C@@H](C)[C@@H](O)[C@H]1O`, the inhibition result in test [1], in [3], in test [4] and in [5] was “inactive” each time. Moreover, the inhibition in test [7] is 5%.

As to `C[C@H]1NN[C@@H](CN)[C@H](O)[C@@H]1O`, the inhibition result in test [1], in test [3], in test [4] and in test [5] was “inactive” throughout. The compound further came in with an inhibition in [2] of 53%.

As for `C[C@H]1[C@@H](O)[C@@H](O)[C@H](CNC(=O)[C@@H](N)CCCCN)NN1C(=O)OCc1ccccc1`, the inhibition entry in test [1], in [3], in test [4] and in [5] was “inactive” in each case. In test [2], the inhibition amounted to 77%.

Take `C[C@@H]1NN[C@@H](CO)[C@H](O)[C@@H]1O`: the inhibition entry in test [1], in test [3], in [4] and in test [5] was “inactive” in each case. For the same compound, the inhibition in [2] was 97%. In test [6], this compound gave an IC50 of 30 µM. In test [6], this compound returned a Ki of 4.2 µM.

`C[C@H]1[C@@H](O)[C@@H](O)[C@H](CO)NN1C(=O)OCc1ccccc1`: the inhibition result in [1], in [3], in test [4] and in [5] was “inactive” throughout. Moreover, the inhibition in test [2] worked out at 35%.

Take `C[C@@H]1NN[C@@H](CN)[C@H](O)[C@@H]1O`: the inhibition entry in [1], in test [3], in test [4] and in [5] was “inactive” in each case. The compound also showed an inhibition in test [2] of 44%.

Consider `C[C@@H]1[C@@H](O)[C@@H](O)[C@H](CN)NN1C(=O)OCc1ccccc1`, for which the inhibition entry in test [1], in test [3], in [4] and in [5] was “inactive” each time. This compound also returned an inhibition in test [2] of 54%.

As for `C[C@H]1NN[C@@H](CO)[C@H](O)[C@@H]1O`, the inhibition entry in [1], in test [3] and in [5] was “inactive” in each case. The inhibition in test [2] came out at 17%; in test [4], 23%.

For the compound `C[C@H]1NN[C@@H](CNC(=O)[C@@H](N)Cc2ccccc2)[C@H](O)[C@@H]1O`, the inhibition entry in [1], in test [2], in test [3], in [4] and in test [5] was “inactive” in each case.

Take `C[C@@H]1[C@@H](O)[C@@H](O)[C@H](CO)NN1C(=O)OCc1ccccc1`: the inhibition entry in test [1], in test [3], in test [4] and in [5] was “inactive” in each case. This compound displayed an inhibition in [2] of 27%.

Take `C[C@@H]1NN[C@@H](CNC(=O)c2ccc(-c3ccccc3)cc2)[C@H](O)[C@@H]1O`: the inhibition entry in test [8], in test [9] and in test [10] was “inactive” each time. In addition, the inhibition in test [7] turned out to be 85%; in [11], 21%. In test [6], this compound showed an IC50 of 8.6 µM. Further, the Ki in test [6] is 1 µM.

As to `C[C@H]1[C@@H](O)[C@@H](O)[C@H](CNC(=O)[C@@H](N)Cc2ccccc2)NN1C(=O)OCc1ccccc1`, the inhibition result in test [1], in test [3], in [4] and in test [5] was “inactive” each time. The inhibition in [2] was 65%.

With `CCCCCCCCCCCC(=O)NC[C@@H]1NN[C@H](C)[C@@H](O)[C@H]1O`, the inhibition entry in test [1], in test [3] and in test [4] was “inactive” each time. For the same compound, the inhibition in test [2] stood at 40%; in test [5] it was 24%.

Regarding `C[C@@H]1NN[C@@H](CNC(=O)[C@@H](N)CCCCN)[C@H](O)[C@@H]1O`, the inhibition entry in [1], in test [3], in [4] and in test [5] was “inactive” throughout. Also, the inhibition in test [2] came out at 77%. The same compound registered an IC50 in test [6] of 535 µM.

Regarding `C[C@H]1[C@@H](O)[C@@H](O)[C@H](CN)NN1C(=O)OCc1ccccc1`, the results for the inhibition in test [1] and in [2] were 32% and 92%, respectively. Further, the concentration for half-maximal inhibition (IC50) in [6] was found to be 117 µM. For the same compound, the inhibition entry in test [3], in [4] and in test [5] was “inactive” each time.

On to `C[C@H]1NN[C@@H](CNC(=O)c2ccc(-c3ccccc3)cc2)[C@H](O)[C@@H]1O`, for which the inhibition entry in [1], in test [3], in test [4] and in test [5] was “inactive” throughout. The same compound returned an inhibition in [2] of 53%.

In the case of `C[C@@H]1[C@@H](O)[C@@H](O)[C@H](CNC(=O)c2ccc(-c3ccccc3)cc2)NN1C(=O)OCc1ccccc1`, the inhibition result in test [8], in test [7], in test [9], in test [10] and in test [11] was “inactive” each time.
